1 compound from paper PMC6253949, “The Inhibitory Action of Kohamaic Acid A Derivatives on Mammalian DNA Polymerase β” (Molecules, 2008) can be followed below.

Broadly, the IC50 is the concentration that inhibits the measured activity by half.

Format in all cases: biochemical
One experiment concerns the target T1, T7 RNA polymerase (Escherichia phage T7, UniProt P00573).
T1 construct: purchased Takara (Kyoto, Japan)
Kind of experiment: T7 RNA polymerase assay. The source says: (§1) Pol α was purified from calf thymus by immuno-affinity column chromatography as described by Tamai et al.. Recombinant rat pol β was purified from E. coli JMpβ5 as described by Date et al.. The human pol γ catalytic gene was cloned into pFastBac. Histidine-tagged enzyme was expressed using the BAC-TO-BAC HT Baculovirus Expression System according to the supplier's manual (LIFE TECHNOLOGIES, MD, USA) and purified using ProBoundresin (Invitrogen Japan, Tokyo, Japan). Human pols δ and ε were purified by the nuclear fractionation of human peripheral blood cancer cells (Molt-4) using the second subunit of pols δ and ε-conjugated affinity column chromatography, respectively. Recombinant human pols η and ι tagged with His6 at their C-terminal were expressed in SF9 insect cells using the baculovirus expression system, and were purified as described previously. A truncated form of pol κ (i.e., hDINB1DC) with 6 x His-tags attached at the C-terminal was overproduced using the BAC-to-BAC Baculovirus Expression System kit (GIBCO BRL, MD, USA) and purified as described previously. […]
(§2) The primase activity of calf pol α, the activities of T7 RNA polymerase, T4 polynucleotide kinase and bovine DNase I were measured in standard assays according to the manufacturer's specifications as described by Tamiya-Koizumi et al., Nakayama et al., Soltis et al., and Lu and Sakaguchi, respectively.

Experiment [1] deals with Calf Primase of DNA polymerase α (Bos taurus, UniProt A0A3Q1MF00+A0JNF4). Kind of experiment: Primase activity assay of calf pol α. As for the experimental part: as §2
For a further experiment, the target named is T2, Human DNA polymerase λ (Homo sapiens, UniProt Q9UGP5).
T2 construct: His tag; made in house; host or cells: E. coli (from the title of the cited method)
T2 sequence (Q9UGP5 1-575): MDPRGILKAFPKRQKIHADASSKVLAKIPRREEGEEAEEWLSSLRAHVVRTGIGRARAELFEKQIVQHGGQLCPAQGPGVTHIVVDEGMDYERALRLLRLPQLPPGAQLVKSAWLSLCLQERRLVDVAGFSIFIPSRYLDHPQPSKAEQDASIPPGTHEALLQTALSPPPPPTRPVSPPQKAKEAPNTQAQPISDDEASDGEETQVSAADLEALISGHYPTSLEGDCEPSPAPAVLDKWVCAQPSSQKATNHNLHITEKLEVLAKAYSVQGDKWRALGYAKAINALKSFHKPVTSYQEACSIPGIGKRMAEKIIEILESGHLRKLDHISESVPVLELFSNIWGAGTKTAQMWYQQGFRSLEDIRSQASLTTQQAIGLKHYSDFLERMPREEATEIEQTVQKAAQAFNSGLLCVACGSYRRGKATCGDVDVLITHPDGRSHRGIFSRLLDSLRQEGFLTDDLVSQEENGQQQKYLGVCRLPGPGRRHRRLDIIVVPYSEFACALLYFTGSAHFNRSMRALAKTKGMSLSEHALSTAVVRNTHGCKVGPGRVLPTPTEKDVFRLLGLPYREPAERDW
Kind of experiment: DNA polymerase assay, human pol λ.
Text: as §1
For pols, poly(dA)/oligo(dT)12-18 (A/T = 2/1) and dTTP were used as the DNA template-primer and nucleotide (i.e., dNTP) substrate, respectively. […] Activity without the inhibitor was considered 100%, and the remaining activity at each concentration of the inhibitor was determined relative to this value. […]

The target of a further experiment is Calf DNA polymerase α (Bos taurus, UniProt A0AAA9THK8). The experiment can be described thus: DNA polymerase assay, calf pol α. The source says:
Pol α was purified from calf thymus by immuno-affinity column chromatography as described by Tamai et al.. Recombinant rat pol β was purified from E. coli JMpβ5 as described by Date et al.. The human pol γ catalytic gene was cloned into pFastBac. Histidine-tagged enzyme was expressed using the BAC-TO-BAC HT Baculovirus Expression System according to the supplier's manual (LIFE TECHNOLOGIES, MD, USA) and purified using ProBoundresin (Invitrogen Japan, Tokyo, Japan). Human pols δ and ε were purified by the nuclear fractionation of human peripheral blood cancer cells (Molt-4) using the second subunit of pols δ and ε-conjugated affinity column chromatography, respectively. Recombinant human pols η and ι tagged with His6 at their C-terminal were expressed in SF9 insect cells using the baculovirus expression system, and were purified as described previously. A truncated form of pol κ (i.e., hDINB1DC) with 6 x His-tags attached at the C-terminal was overproduced using the BAC-to-BAC Baculovirus Expression System kit (GIBCO BRL, MD, USA) and purified as described previously. Recombinant human His-pol λ was overexpressed and purified according to a method described previously. Fish pol δ was purified from the testis of cherry salmon (Oncorhynchus masou). Pol I (α-like) from a higher plant, cauliflower inflorescence, was purified according to the methods outlined by Sakaguchi et al.. The Klenow fragment of pol I from E. coli was purchased from Worthington Biochemical Corp. (Freehold, NJ, USA). Taq pol, T4 pol, T7 RNA polymerase and T4 polynucleotide kinase were purchased from Takara (Kyoto, Japan). Bovine pancreas deoxyribonuclease I (DNase I) was obtained from Stratagene Cloning Systems (La Jolla, CA, USA).
The reaction mixtures for pol α, pol β, fish pol δ, plant pol I (α-like) and prokaryotic pols were described previously, and those for pol γ, and pols δ and ε were as described by Umeda et al. and Ogawa et al., respectively. The reaction mixtures for pols η, ι and κ were the same as for pol α, and the reaction mixture for pol λ was the same as that for pol β.
For pols, poly(dA)/oligo(dT)12-18 (A/T = 2/1) and dTTP were used as the DNA template-primer and nucleotide (i.e., dNTP) substrate, respectively. KA-A analogues (i.e., compounds 1–12) were dissolved in distilled dimethyl sulfoxide (DMSO) at various concentrations and sonicated for 30 sec. Aliquots of 4 μL of sonicated samples were mixed with 16 μL of each enzyme (final amount 0.05 units) in 50 mM Tris-HCl (pH 7.5) containing 1 mM dithiothreitol, 50% glycerol and 0.1 mM EDTA, and kept at 0 °C for 10 min. […] Activity without the inhibitor was considered 100%, and the remaining activity at each concentration of the inhibitor was determined relative to this value. […]

Sequence of Calf DNA polymerase α (Q58D13 whole entry): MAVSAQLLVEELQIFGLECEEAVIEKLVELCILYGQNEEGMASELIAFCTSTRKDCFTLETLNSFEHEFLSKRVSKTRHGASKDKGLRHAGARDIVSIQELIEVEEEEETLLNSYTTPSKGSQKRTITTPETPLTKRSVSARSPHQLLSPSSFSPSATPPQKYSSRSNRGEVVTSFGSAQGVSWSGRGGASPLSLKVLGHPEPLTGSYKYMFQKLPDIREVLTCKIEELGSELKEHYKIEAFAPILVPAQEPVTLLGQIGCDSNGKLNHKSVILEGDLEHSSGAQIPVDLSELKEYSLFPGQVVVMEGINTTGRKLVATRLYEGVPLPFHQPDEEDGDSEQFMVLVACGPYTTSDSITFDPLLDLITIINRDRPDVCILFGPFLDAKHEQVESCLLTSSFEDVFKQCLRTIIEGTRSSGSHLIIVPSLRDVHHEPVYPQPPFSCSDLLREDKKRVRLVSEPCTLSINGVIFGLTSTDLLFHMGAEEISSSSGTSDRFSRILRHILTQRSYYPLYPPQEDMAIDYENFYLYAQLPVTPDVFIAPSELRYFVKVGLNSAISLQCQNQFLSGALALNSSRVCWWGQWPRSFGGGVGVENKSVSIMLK
Sequence of Calf DNA polymerase α (A0AAA9THK8 entry or part of it): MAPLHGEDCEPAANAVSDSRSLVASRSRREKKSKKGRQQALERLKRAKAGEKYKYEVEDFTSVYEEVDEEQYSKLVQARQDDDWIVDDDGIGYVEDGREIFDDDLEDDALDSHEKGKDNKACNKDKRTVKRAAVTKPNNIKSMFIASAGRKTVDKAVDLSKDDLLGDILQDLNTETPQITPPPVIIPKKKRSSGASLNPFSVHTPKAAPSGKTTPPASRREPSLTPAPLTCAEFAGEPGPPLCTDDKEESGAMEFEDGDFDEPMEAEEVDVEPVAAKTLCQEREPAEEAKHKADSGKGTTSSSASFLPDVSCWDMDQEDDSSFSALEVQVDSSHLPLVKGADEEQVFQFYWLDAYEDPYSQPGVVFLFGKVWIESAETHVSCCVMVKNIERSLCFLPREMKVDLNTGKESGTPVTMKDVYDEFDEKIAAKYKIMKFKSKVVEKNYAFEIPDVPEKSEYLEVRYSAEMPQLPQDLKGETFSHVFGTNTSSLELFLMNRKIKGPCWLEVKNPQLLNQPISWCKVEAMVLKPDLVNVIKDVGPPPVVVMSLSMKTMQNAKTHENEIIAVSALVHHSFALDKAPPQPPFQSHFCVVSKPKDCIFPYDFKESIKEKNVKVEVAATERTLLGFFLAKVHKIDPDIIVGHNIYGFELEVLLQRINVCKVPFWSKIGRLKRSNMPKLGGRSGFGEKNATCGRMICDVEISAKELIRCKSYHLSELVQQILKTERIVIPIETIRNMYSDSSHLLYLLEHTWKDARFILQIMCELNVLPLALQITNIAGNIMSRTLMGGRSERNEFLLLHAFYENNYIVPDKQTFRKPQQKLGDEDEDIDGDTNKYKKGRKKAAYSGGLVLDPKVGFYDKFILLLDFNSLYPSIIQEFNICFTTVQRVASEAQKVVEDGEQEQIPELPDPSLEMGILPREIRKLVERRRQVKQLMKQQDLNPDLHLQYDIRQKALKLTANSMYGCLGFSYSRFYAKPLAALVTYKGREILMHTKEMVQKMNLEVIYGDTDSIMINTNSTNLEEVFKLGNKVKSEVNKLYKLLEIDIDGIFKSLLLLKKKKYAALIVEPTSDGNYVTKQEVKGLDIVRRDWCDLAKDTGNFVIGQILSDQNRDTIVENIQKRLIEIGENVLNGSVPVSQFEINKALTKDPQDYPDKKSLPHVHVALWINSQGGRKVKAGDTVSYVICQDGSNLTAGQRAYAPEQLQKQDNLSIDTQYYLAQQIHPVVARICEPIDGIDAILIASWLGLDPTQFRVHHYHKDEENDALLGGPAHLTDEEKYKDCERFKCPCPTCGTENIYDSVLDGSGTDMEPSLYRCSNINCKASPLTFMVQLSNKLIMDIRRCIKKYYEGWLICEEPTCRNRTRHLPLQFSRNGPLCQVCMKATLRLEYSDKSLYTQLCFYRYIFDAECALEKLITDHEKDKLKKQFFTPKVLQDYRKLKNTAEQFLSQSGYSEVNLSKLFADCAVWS
Sequence of Calf DNA polymerase α (A0JNF4 entry or part of it, further chain): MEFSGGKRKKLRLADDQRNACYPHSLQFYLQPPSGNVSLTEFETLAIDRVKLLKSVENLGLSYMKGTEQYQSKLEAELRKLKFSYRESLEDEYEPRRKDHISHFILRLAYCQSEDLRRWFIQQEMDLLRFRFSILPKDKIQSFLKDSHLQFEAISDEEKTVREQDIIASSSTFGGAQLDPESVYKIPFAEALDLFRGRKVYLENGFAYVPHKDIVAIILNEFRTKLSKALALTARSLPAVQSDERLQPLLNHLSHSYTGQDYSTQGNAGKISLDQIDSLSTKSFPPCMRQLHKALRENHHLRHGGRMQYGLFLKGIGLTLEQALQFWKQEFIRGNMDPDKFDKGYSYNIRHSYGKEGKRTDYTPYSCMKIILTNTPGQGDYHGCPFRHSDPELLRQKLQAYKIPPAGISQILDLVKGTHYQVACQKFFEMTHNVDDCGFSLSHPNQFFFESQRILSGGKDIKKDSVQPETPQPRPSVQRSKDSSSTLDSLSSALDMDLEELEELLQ
Sequence of Calf DNA polymerase α (A0A3Q1MF00 entry or part of it, further chain): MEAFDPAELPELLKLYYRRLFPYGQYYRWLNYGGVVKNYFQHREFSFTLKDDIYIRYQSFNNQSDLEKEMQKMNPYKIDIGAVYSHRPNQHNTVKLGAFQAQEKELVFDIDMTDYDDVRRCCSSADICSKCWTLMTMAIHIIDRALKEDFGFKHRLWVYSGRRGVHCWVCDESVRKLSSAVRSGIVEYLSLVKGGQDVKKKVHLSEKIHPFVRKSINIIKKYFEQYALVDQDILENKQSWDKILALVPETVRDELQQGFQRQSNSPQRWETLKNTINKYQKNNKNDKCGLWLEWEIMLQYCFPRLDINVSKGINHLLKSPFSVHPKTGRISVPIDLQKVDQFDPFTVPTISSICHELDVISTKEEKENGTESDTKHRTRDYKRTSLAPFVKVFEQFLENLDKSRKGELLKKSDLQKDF
T1 sequence (P00573 whole entry): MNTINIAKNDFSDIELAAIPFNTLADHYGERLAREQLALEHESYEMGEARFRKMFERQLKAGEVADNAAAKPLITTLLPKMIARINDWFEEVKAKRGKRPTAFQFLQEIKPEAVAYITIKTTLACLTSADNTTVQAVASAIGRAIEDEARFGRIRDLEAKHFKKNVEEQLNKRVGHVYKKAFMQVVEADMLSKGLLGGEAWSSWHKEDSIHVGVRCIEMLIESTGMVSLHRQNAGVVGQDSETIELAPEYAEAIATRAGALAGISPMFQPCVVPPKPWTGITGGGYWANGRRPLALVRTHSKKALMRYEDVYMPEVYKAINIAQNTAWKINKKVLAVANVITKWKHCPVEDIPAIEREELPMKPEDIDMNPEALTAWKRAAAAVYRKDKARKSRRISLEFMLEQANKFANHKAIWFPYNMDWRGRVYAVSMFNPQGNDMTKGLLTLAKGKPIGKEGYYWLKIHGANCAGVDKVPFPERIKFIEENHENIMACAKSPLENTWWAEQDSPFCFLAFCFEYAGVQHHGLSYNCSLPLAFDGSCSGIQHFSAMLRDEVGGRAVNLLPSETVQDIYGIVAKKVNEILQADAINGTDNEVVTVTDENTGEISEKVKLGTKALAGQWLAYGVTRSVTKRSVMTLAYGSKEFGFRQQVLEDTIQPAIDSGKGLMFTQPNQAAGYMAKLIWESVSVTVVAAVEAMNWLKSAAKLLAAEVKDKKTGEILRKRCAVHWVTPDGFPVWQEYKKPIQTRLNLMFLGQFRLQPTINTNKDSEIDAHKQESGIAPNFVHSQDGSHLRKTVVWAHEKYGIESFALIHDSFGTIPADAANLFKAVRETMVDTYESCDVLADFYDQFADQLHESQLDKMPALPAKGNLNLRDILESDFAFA
Sequence of Calf Primase of DNA polymerase α (A0AAA9THK8 entry or part of it): as the sequence (A0AAA9THK8 entry or part of it) above
Sequence of Calf Primase of DNA polymerase α (A0JNF4 entry or part of it): as the sequence (A0JNF4 entry or part of it, further chain) above
Sequence of Calf Primase of DNA polymerase α (Q58D13 whole entry, further chain): as the sequence (Q58D13 whole entry) above
Sequence of Calf Primase of DNA polymerase α (A0A3Q1MF00 entry or part of it): as the sequence (A0A3Q1MF00 entry or part of it, further chain) above

As for `CC1=CC[C@H]2C(C)(C)CCC[C@]2(C)[C@H]1CCCCCCCCCCCCCCCCC(=O)O` (relative stereo) [compound 11, (1S*,4aS*,8aS*)-17-(1,4,4a,5,6,7,8,8a-octahydro-2,5,5,8a-tetramethylnaphthalen-1-yl)heptadecanoic acid], at T7 RNA polymerase, the “Influence on T7 RNA polymerase activity” value is given as “not influenced”. Moreover, the IC50 in experiment [1] was more than 200 µM; at Human DNA polymerase λ it was 4.67 ± 0.23 µM; at Calf DNA polymerase α (poly(dA)/oligo(dT)12-18 and dTTP, 0.05 units enzyme, read-out: IC50 values), 4.21 ± 0.21 µM. For the same compound, the “Kinetic mode of inhibition” value on Human DNA polymerase λ (with respect to both the DNA template-primer and the dNTP substrate) is reported as “competitive”. Besides, the “Inhibitory effect on pol α compared with KA-A” value on Calf DNA polymerase α (10 and 100 μM of compound (Figure 2A)) is listed as “strongest inhibitory effect”.
